The subject of one assay is F35T cells. The assay is described as follows: Foci reduction in FECD (CAG10-Cy3 FISH, foci per nucleus). Type of assay: cell-based. The procedure, abridged: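 Foci per nucleus were counted by imaging after overnight CAG10-Cy3 FISH at 37 °C (30% formamide, 2×SSC) with DAPI counterstain, on PFA-fixed, ethanol-permeabilized F35T cells. The cells, seeded at 5000 per well in supplemented Opti-MEM, had received 8-point compound dilutions for 48 h at 37 °C.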

Assay [1] relates to Myotonic Dystrophy 1 affected patient fibroblasts (Coriel GM04602; 1600 CTG repeats). The assay is described as follows: DM1 foci reduction assay (EC50 assay; CAG10-Cy3 FISH, foci per nucleus). Type of assay: cell-based. To be noted: Homo sapiens, Fibroblast. In a few lines: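 Foci per nucleus counted by 20× imaging of 4 areas per well, after overnight FISH with 5 nM CAG10-Cy3 and DAPI staining of fixed, permeabilized cells. DM1 fibroblasts (GM04602, 1600 CTG) were dosed 48 h at 37 °C, 8 points, 3-fold dilutions, 3 μM top concentration.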

[2] abbreviates: F35T cells, 48 h treatment, foci per nucleus, read-out: FECD EC50, 48 h.
[3] abbreviates: DM1 patient fibroblasts, 48 h treatment, foci per nucleus, read-out: DM1 EC50, 48 h.

Molecules are shown by their SMILES. Where two headings read alike, the source gives them in different places.

25 molecules from patent US20250368628A1, “METHODS AND COMPOUNDS FOR MODULATING INHERITED GENETIC DISEASES” (Design Therapeutics, Inc., priority 2022, published 2025) can be followed below.

`CCCNC(=O)CCNC(=O)c1nc(NC(=O)c2cc(NC(=O)CCNC(=O)c3nc(NC(=O)CCCNC(=O)c4cc(NC(=O)c5nc(NC(=O)CCNC(=O)c6cc(NC(=O)c7nccn7C)cn6C)cn5C)cn4CCCCC(=O)N(CCOCCOCCOCCOC)CCOCCOCCOCCOC)cn3C)cn2C)cn1C` [Compound B-163]: the half-maximal effective concentration (EC50) (with F35T cells (setting [2]); in assay [1] (setting [3])) was 100 to 500 nM throughout.

As for `CCCNC(=O)CCNC(=O)c1nc(NC(=O)c2cc(NC(=O)CCNC(=O)c3nc(NC(=O)CCCNC(=O)c4cc(NC(=O)c5nc(NC(=O)CCNC(=O)c6cc(NC(=O)c7nccn7C)cn6C)cn5C)cn4CCOCCNC(C)=O)cn3C)cn2C)cn1C` [Compound B-298], the EC50 (with F35T cells (setting [2]); in assay [1] (setting [3])) was 100 to 500 nM in each case.

Turning to `Cn1cc(NC(=O)c2nc(NC(=O)CCNC(=O)c3cc(NC(=O)c4nccn4C)cn3C)cn2C)cc1C(=O)NCCCC(=O)Nc1cn(C)c(C(=O)NCCC(=O)Nc2cc(C(=O)Nc3cn(C)c(C(=O)NCCCN(CC#Cc4cccc(C(=O)O)c4)CCCN)n3)n(C)c2)n1` [Compound B-383], the 50% effective concentration (EC50) is under 100 nM with F35T cells (setting [2]) and over 1000 nM in assay [1] (setting [3]).

Take `Cn1cc(NC(=O)c2nc(NC(=O)CCNC(=O)c3cc(NC(=O)c4nccn4C)cn3C)cn2C)cc1C(=O)NCCCC(=O)Nc1cn(C)c(C(=O)NCCC(=O)Nc2cc(C(=O)Nc3cn(C)c(C(=O)NCCC(=O)N4CCC(C#CC5=CCN(C(=O)OCC6c7ccccc7-c7ccccc76)CC5)CC4)n3)n(C)c2)n1` [Compound B-345]: the EC50 in the assay on F35T cells (setting [2]) is 500 to 1000 nM; in assay [1] (setting [3]), over 1000 nM.

With `CCN(CC)CCCC[C@H](NC(C)=O)C(=O)Nc1ccc(OCCOCCOCCOCCOCCOCCOCCNC(=O)CCNC(=O)c2nc(NC(=O)c3cc(NC(=O)CCNC(=O)c4nc(NC(=O)CCCNC(=O)c5cc(NC(=O)c6nc(NC(=O)CCNC(=O)c7cc(NC(=O)c8nccn8C)cn7C)cn6C)cn5C)cn4C)cn3C)cn2C)cc1` [Compound B-144], the concentration giving a half-maximal response (EC50) (in the assay on F35T cells (setting [2]); in assay [1] (setting [3])) was 500 to 1000 nM each time.

With `CC(C)CCCN1CCC(C#CC#CC2CCN(CCOCCOCCOCCNC(=O)CCNC(=O)c3nc(NC(=O)c4cc(NC(=O)CCNC(=O)c5nc(NC(=O)CCCNC(=O)c6cc(NC(=O)c7nc(NC(=O)CCNC(=O)c8cc(NC(=O)c9nccn9C)cn8C)cn7C)cn6C)cn5C)cn4C)cn3C)CC2)CC1` [Compound B-170], the concentration for a half-maximal effect (EC50) (in the assay on F35T cells (setting [2]); in assay [1] (setting [3])) was 100 to 500 nM each time.

As for `Cn1cc(NC(=O)c2nc(NC(=O)CCNC(=O)c3cc(NC(=O)c4nccn4C)cn3C)cn2C)cc1C(=O)NCCCC(=O)Nc1cn(C)c(C(=O)NCCC(=O)Nc2cc(C(=O)Nc3cn(C)c(C(=O)NCCC(=O)N4CCC(N5CCN(CCOCCOCCOCCOCCNC(=O)OC(C)(C)C)CC5)CC4)n3)n(C)c2)n1` [Compound B-23], the EC50 was over 1000 nM in the assay on F35T cells (setting [2]) and 100 to 500 nM in assay [1] (setting [3]).

With `COC(=O)c1cccc(C#CCNCCCNC(=O)c2nc(NC(=O)c3cc(NC(=O)CCNC(=O)c4nc(NC(=O)CCCNC(=O)c5cc(NC(=O)c6nc(NC(=O)CCNC(=O)c7cc(NC(=O)c8nccn8C)cn7C)cn6C)cn5C)cn4C)cn3C)cn2C)c1` [Compound B-361], the EC50 (in the assay on F35T cells (setting [2]); in assay [1] (setting [3])) was under 100 nM throughout.

Take `CSCCCCN1CCC(C#CC#CC2CCN(CCOCCOCCOCCNC(=O)CCNC(=O)c3nc(NC(=O)c4cc(NC(=O)CCNC(=O)c5nc(NC(=O)CCCNC(=O)c6cc(NC(=O)c7nc(NC(=O)CCNC(=O)c8cc(NC(=O)c9nccn9C)cn8C)cn7C)cn6C)cn5C)cn4C)cn3C)CC2)CC1` [Compound B-174]: the concentration for a half-maximal effect (EC50) (with F35T cells (setting [2]); in assay [1] (setting [3])) was 100 to 500 nM each time.

As for `CC(=O)N1CCC(C#CC#CC2CCN(C(=O)CCNC(=O)c3nc(NC(=O)c4cc(NC(=O)CCNC(=O)c5nc(NC(=O)CCCNC(=O)c6cc(NC(=O)c7nc(NC(=O)CCNC(=O)c8cc(NC(=O)c9nccn9C)cn8C)cn7C)cn6CCCOCCN)cn5C)cn4C)cn3C)CC2)CC1` [Compound B-302], the EC50 (with F35T cells (setting [2]); in assay [1] (setting [3])) was under 100 nM each time.

As for `CSCCCC(=O)N1CCC(C#CC#CC2CCN(CCOCCOCCOCCNC(=O)CCNC(=O)c3nc(NC(=O)c4cc(NC(=O)CCNC(=O)c5nc(NC(=O)CCCNC(=O)c6cc(NC(=O)c7nc(NC(=O)CCNC(=O)c8cc(NC(=O)c9nccn9C)cn8C)cn7C)cn6C)cn5C)cn4C)cn3C)CC2)CC1` [Compound B-173], the EC50 (in the assay with F35T cells (setting [2]); in assay [1] (setting [3])) was 100 to 500 nM in each case.

For the molecule `Cn1cc(NC(=O)c2nc(NC(=O)CCNC(=O)c3cc(NC(=O)c4nccn4C)cn3C)cn2C)cc1C(=O)NCCCC(=O)Nc1cn(C)c(C(=O)NCCC(=O)Nc2cc(C(=O)Nc3cn(C)c(C(=O)NCCC(=O)NCCCN4CCCCC4)n3)n(C)c2)n1` [Compound B-38], the results for the concentration giving a half-maximal response (EC50) (with F35T cells (setting [2]); in assay [1] (setting [3])) were over 1000 nM and 100 to 500 nM, respectively.

As to `Cn1cc(NC(=O)c2nc(NC(=O)CCNC(=O)c3cc(NC(=O)c4nccn4C)cn3C)cn2C)cc1C(=O)NCCCC(=O)Nc1cn(C)c(C(=O)NCCC(=O)Nc2cc(C(=O)Nc3cn(C)c(C(=O)NCCC(=O)NC4COP(=O)(Oc5ccccc5Cl)OC4)n3)n(C)c2)n1` (centres unmarked) [Compound B-391], the EC50 with F35T cells (48 h, read-out: FECD EC50, 48 h (nM)) is over 1000 nM; in assay [1] (48 h, read-out: DM1 EC50, 48 h (nM)) it was over 1000 nM.

Regarding `CCCNC(=O)CCNC(=O)c1nc(NC(=O)c2cc(NC(=O)CCNC(=O)c3nc(NC(=O)CCCNC(=O)c4cc(NC(=O)c5nc(NC(=O)CCNC(=O)c6cc(NC(=O)c7nccn7C)cn6C)cn5C)cn4CCCCCN)cn3C)cn2C)cn1C` [Compound B-286], the EC50 in the assay on F35T cells (setting [2]) was under 100 nM; in assay [1] (setting [3]), 100 to 500 nM.

On to `CC(=O)N1CCC(C#CC#CC2CCN(CCOCCOCCOCCNC(=O)CCNC(=O)c3nc(NC(=O)c4cc(NC(=O)CCNC(=O)c5nc(NC(=O)CCCNC(=O)c6cc(NC(=O)c7nc(NC(=O)CCNC(=O)c8cc(NC(=O)c9nccn9C)cn8C)cn7C)cn6C)cn5C)cn4C)cn3C)CC2)CC1` [Compound B-121], for which the EC50 (in the assay on F35T cells (setting [2]); in assay [1] (setting [3])) was 100 to 500 nM throughout.

In the case of `CCCNC(=O)CCNC(=O)c1nc(NC(=O)c2cc(NC(=O)CCNC(=O)c3nc(NC(=O)CCCNC(=O)c4cc(NC(=O)c5nc(NC(=O)CCNC(=O)c6cc(NC(=O)c7nccn7C)cn6C)cn5C)cn4CCCCCNC(=O)C(C)(C)C)cn3C)cn2C)cn1C` [Compound B-398], the EC50 (in the assay on F35T cells (setting [2]); in assay [1] (setting [3])) was 100 to 500 nM in each case.

On to `Cn1cc(NC(=O)c2nc(NC(=O)CCNC(=O)c3cc(NC(=O)c4nccn4C)cn3C)cn2C)cc1C(=O)NCCCC(=O)Nc1cn(C)c(C(=O)NCCC(=O)Nc2cc(C(=O)Nc3cn(C)c(C(=O)NCCCNCC#Cc4ccccc4)n3)n(C)c2)n1` [Compound B-247], for which the EC50 (with F35T cells (setting [2]); in assay [1] (setting [3])) was under 100 nM in each case.

Regarding `CC(=O)NCCOCCCn1cc(NC(=O)c2nc(NC(=O)CCNC(=O)c3cc(NC(=O)c4nccn4C)cn3C)cn2C)cc1C(=O)NCCCC(=O)Nc1cn(C)c(C(=O)NCCC(=O)Nc2cc(C(=O)Nc3cn(C)c(C(=O)NCCC(=O)N4CCC(C#CC#CC5CCNCC5)CC4)n3)n(C)c2)n1` [Compound B-306], the concentration for a half-maximal effect (EC50) (in the assay with F35T cells (setting [2]); in assay [1] (setting [3])) was under 100 nM each time.

`COC(=O)CCCN(CCCC(=O)O)Cc1ncc(C2CN(C(=O)CCNC(=O)c3nc(NC(=O)c4cc(NC(=O)CCNC(=O)c5nc(NC(=O)CCCNC(=O)c6cc(NC(=O)c7nc(NC(=O)CCNC(=O)c8cc(NC(=O)c9nccn9C)cn8C)cn7C)cn6C)cn5C)cn4C)cn3C)C2)[nH]1` [Compound B-370]: the half-maximal effective concentration (EC50) (in the assay with F35T cells (setting [2]); in assay [1] (setting [3])) was over 1000 nM throughout.

For `Cn1cc(NC(=O)c2nc(NC(=O)CCNC(=O)c3cc(NC(=O)c4nccn4C)cn3C)cn2C)cc1C(=O)NCCCC(=O)Nc1cn(C)c(C(=O)NCCC(=O)Nc2cc(C(=O)Nc3cn(C)c(C(=O)NCCC(=O)N4CCC(C5CN(C(=O)OC(C)(C)C)C5)CC4)n3)n(C)c2)n1` [Compound B-193], the EC50 (with F35T cells (setting [2]); in assay [1] (setting [3])) was under 100 nM in each case.

On to `Cn1cc(NC(=O)c2nc(NC(=O)CCNC(=O)c3cc(NC(=O)c4nccn4C)cn3C)cn2C)cc1C(=O)NCCCC(=O)Nc1cn(C)c(C(=O)NCCC(=O)Nc2cc(C(=O)Nc3cn(C)c(C(=O)NCCC(=O)N4CCN(C5CCN(C(=O)OCc6ccccc6)CC5)CC4)n3)n(C)c2)n1` [Compound B-32], for which the concentration giving a half-maximal response (EC50) (in the assay with F35T cells (setting [2]); in assay [1] (setting [3])) was under 100 nM throughout.

For `COC(=O)CCCN(CCCC(=O)OC)Cc1ncc(C2CN(C(=O)CCNC(=O)c3nc(NC(=O)c4cc(NC(=O)CCNC(=O)c5nc(NC(=O)CCCNC(=O)c6cc(NC(=O)c7nc(NC(=O)CCNC(=O)c8cc(NC(=O)c9nccn9C)cn8C)cn7C)cn6C)cn5C)cn4C)cn3C)C2)[nH]1` [Compound B-369], the EC50 in the assay on F35T cells (setting [2]) is 100 to 500 nM; in assay [1] (setting [3]), over 1000 nM.

On to `CCCNC(=O)CCNC(=O)c1nc(NC(=O)c2cc(NC(=O)CCNC(=O)c3nc(NC(=O)CCCNC(=O)c4cc(NC(=O)c5nc(NC(=O)CCNC(=O)c6cc(NC(=O)c7nccn7C)cn6C)cn5C)cn4CCCO)cn3C)cn2C)cn1C` [Compound B-431], for which the 50% effective concentration (EC50) in the assay on F35T cells (F35T cells, foci per nucleus, 48 h treatment, read-out: FECD EC50, 48 h) was under 100 nM; in assay [1] (DM1 patient fibroblasts, foci per nucleus, 48 h treatment, read-out: DM1 EC50, 48 h), under 100 nM.

With `CCCNC(=O)c1cc(NC(=O)CCNC(=O)c2nc(NC(=O)[C@H](N)CCNC(=O)c3cc(NC(=O)c4nc(NC(=O)CCNC(=O)c5cc(NC(=O)c6nccn6C)cn5C)cn4C)cn3C)cn2C)cn1C` [Compound B-366], the concentration giving a half-maximal response (EC50) (in the assay on F35T cells (setting [2]); in assay [1] (setting [3])) was over 1000 nM throughout.

For the molecule `Cn1cc(NC(=O)c2nc(NC(=O)CCNC(=O)c3cc(NC(=O)c4nccn4C)cn3C)cn2C)cc1C(=O)NCCCC(=O)Nc1cn(C)c(C(=O)NCCC(=O)Nc2cc(C(=O)Nc3cn(C)c(C(=O)NCCC(=O)NCCOCCOCCOCCOCCN4CCN(C5CCN(C(=O)OCc6ccccc6)CC5)CC4)n3)n(C)c2)n1` [Compound B-21], the EC50 (in the assay on F35T cells (setting [2]); in assay [1] (setting [3])) was 100 to 500 nM throughout.
